Laboratory results reported in US8653054B2, “2-(N-substituted piperazinyl) steroid derivatives” (Universite Laval, priority 2008, dated 2014).
Read-outs that look alike come from different tables or passages of the source.

Columns and labels:
in vivo = conditions: male, Sprague-Dawley, rat, sc, 2.3 mg/kg
Description: (§1) Animals: Six to seven week-old male Sprague-Dawley rats (Crl:CD®(SD)Br VAF/Plus™) weighing approximately 220 g were obtained from Charles-River, Inc (St-Constant, Qc., Canada). The animals were acclimatized to environmental conditions (temperature: 22±3° C.; humidity: 50±20%; 12-h light/12-h dark cycles, lights on at 07:15 h) for at least 5 days before starting the experiment. The animals were housed three per cage and were allowed free access to water and a certified commercial rodent food (Rodent Diet #T.2018.15, Harlan Teklad, Madison, Wis., U.S.A.) and were randomized according to their body weight.
(§2) Assay: A pharmacokinetic study was carried out following one subcutaneous (s.c.) injection of the aminosteroids at one concentration (2.3 mg/kg of body weight in 0.5 mL of vehicle fluid). The compound was first dissolved in Ethanol (EtOH) followed by the addition of propylene glycol such that a final concentration of EtOH of 8% was obtained. During this experiment, the rats were housed individually and were fasted for 8h before injection of the aminosteroid. Blood samples for determination of aminosteroid plasma concentration were collected at the jugular vein (0.4 mL by animal) at target intervals of 3, 7, 12 and 24 h (or 3 and 12 h) post-dose from six rats per time point (Tables 5, 6 and 7). After the collect at 7 h, a replacement fluid (0.9% sodium chloride injection USP) was injected in the rat. Blood samples were collected in Microvette potassium-EDTA (ethylenediamine tetra-acetic acid)-coated tubes (Sarstedt, Aktiengesellchaft & Co, Germany) and centrifuged at 3200 rpm for 10 minutes at 4° C. The plasma was collected and stored at −80° C. until analyzed by liquid chromatography/mass spectrometry/mass spectrometry (LC/MS/MS) analysis.
(§3) Aminosteroid measurement: The concentration of the aminosteroid was determined by LC/MS/MS analysis using a procedure developed at the CHUQ (CHUL)—Research Center (Québec, Qc, Canada). Briefly, for extraction from serum, 100 νL, of the serum sample was transferred to individual tubes and 600 μL of ammonium acetate (1 mM) was added. A methanolic solution (50 μL) containing a steroidal internal standard was then added to each tube. Samples were transferred on Strata-X SPE columns (Phenomenex, Torrance, Calif., USA), which have been conditioned with 2 mL of MeOH and 2 mL of water. Each column was washed with 2 mL of MeOH:water (10:90, v/v). The aminosteroid was then eluted with 5 mL of MeOH containing 5 mM ammonium acetate. The MeOH was evaporated at 45° C. under inert atmosphere and the dried residue dissolved in 100 μL of MeOH:water (85:15, v/v). […] The inhibitor was detected using an API 3000 mass spectrometer, equipped with TurbolonSpray (Applied Biosystems, Canada). ESI in positive ion mode was used.

[1] = system: HL-60 acute promyelocytic leukemia cells; assay: Cell proliferation assay (MTS) on HL-60 leukemia cells; format: cell-based, human;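 note: cells exposed to serially diluted compound for 3 days at 37 °C, then viable cell number read via MTS conversion to coloured formazan by metabolically active cells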
[2] = system: Shionogi mammary carcinoma cells (AR+); assay: Cell proliferation assay (MTS) on Shionogi mammary carcinoma cells; format: cell-based; conditions: Table 3, 3 days incubation
Description: Shionogi mammary carcinoma cells bearing androgen-sensitive (AR+) were routinely grown in Eagle's Minimal Essential Medium (MEM) (Sigma, Saint Louis, USA) supplemented with 5% (v/v) fetal bovine serum (FBS), penicillin (100 IU/ml), streptomycin sulphate (50 μg/ml), 1% (v/v) non-essential amino acids and dihydrotestosterone DHT (10^−8 M). For the assay, MEM devoid of the pH indicator phenol red was supplemented with 2% (v/v) charcoal-strippes FBS and the same concentrations of antibiotics and non-essential amino acids as above.

[3] = system: MCF-7 breast cancer cells; assay: Cell proliferation assay (MTS) on MCF-7 breast cancer cells; format: cell-based, human; conditions: Table 3, 3 days incubation
Description: MCF-7 breast cancer cells were maintained in Dulbecco's Modified Eagle's Medium (DMEM) containing a nutriment mixture F-12 ham (DME-F12) (Sigma, Saint Louis, USA) supplemented with 5% (v/v) fetal bovine serum (FBS), L-glutamine ([…]), penicillin (100 IU/ml), streptomycin sulphate (50 μg/ml) and estradiol (1 nM). For the assay, DME-F12 was supplemented with 5% (v/v) charcoal-strippes FBS, insulin (50 ng/ml) and the same concentrations of antibiotics as above.

[4] = system: LNCaP prostate cancer cells; assay: Cell proliferation assay (MTS) on LNCaP prostate cancer cells; format: cell-based; conditions: Table 3, 3 days incubation
Description: (§4) The cell proliferation assay was performed using 3-(4,5-dimethylthiazol-2-yl)-5-(3-carboxymethoxyphenyl)2-(4-sulfophenyl)-2H-tetrazolium (MTS) (Cell Titer 96 Aqueous, Promega, USA). MTS is converted into water-soluble colored formazan by dehydrogenase enzymes present in metabolically active cells, which allows the measurement of the number of viable cells.
(§5) The cells were incubated at 37° C. and 5% CO2. The steroid derivatives of the present disclosure were dissolved in ethanol to prepare the 1×10^−2 M stock solutions. The stock solutions and doxorubicin (DOX) (Novapharm, Toronto, Canada) were diluted at multiple concentrations with culture media, added to each well, as indicated, and incubated for 3 days. Following each treatment, 20 μl MTS was added to each well and the mix was incubated for 4 h.

[5] = system: normal lymphocytes from peripheral blood; assay: Cell proliferation assay (MTS) on normal lymphocytes; conditions: read-out: IC50 Lymph Norm.
Description: (§6) All of the following cell lines were maintained under a CO2 humidified atmosphere at 37° C. The culture media were changed every 3-4 days and the cells were split once a week.
(§7) For the assay, the culture medium was the same.
as §4, §5

[6] = system: MDA-MB-231 (ER−) breast cancer cells; assay: Cell proliferation assay (MTS) on MDA-MB-231 (ER−) breast cancer cells; format: cell-based; conditions: Table 3, 3 days incubation
Description: as §6, §7, §4, §5

[7] = system: OVCAR-3 ovarian cancer cells; assay: Cell proliferation assay (MTS) on OVCAR-3 ovarian cancer cells; format: cell-based
Source text: For the assay, the culture medium was the same, but without estradiol.

[8] = system: WI-38 diploid fibroblasts; assay: Cell proliferation assay (MTS) on WI-38 normal fibroblasts; format: cell-based, human; conditions: Table 3, normal cells, 3 days incubation
Description: WI-38 diploid fibroblasts derived from embryonic human lung were cultured in MEM (devoid of the pH indicator phenol red) supplemented with 10% (v/v) FBS, L-glutamine (2 nM), penicillin (100 IU/ml), streptomycin sulphate (50 μg/ml), sodium pyruvate (1 mM) and non-essential amino acids (0.1 mM).
as §4, §5

K-562 leukemia cells = assay: Cell proliferation assay (MTS) on K-562 leukemia cells; format: cell-based; conditions: Table 3, 3 days incubation
Description: as §6, §7, §4, §5

[9] = system: PC-3 (AR−) prostate cancer cells; assay: Cell proliferation assay (MTS) on PC-3 (AR−) prostate cancer cells; format: cell-based; conditions: Table 3, 3 days incubation
Description: as §6, §7, §4, §5

[10] = Plasmatic concentration (AUC) of aminosteroids after a single subcutaneous injection in rat; conditions: Table 5, subcutaneous one time, 2.3 mg/kg
Description: as §1, §2, §3

[11] = Homo sapiens, HL-60, 72 h, Table 3, 3 days incubation, MTS, read-out: IC50 HL-60
[12] = Homo sapiens, OVCAR-3, 72 h, Table 3, 3 days incubation, MTS
[13] = Table 3, 3 days incubation, MTS, read-out: IC50 HL-60
[14] = Table 3, normal lymphocytes, 3 days incubation, MTS
[15] = Table 3, 3 days incubation, MTS

| SMILES | IC50 ([2]; 72 h) [nM] | IC50 ([3]; Homo sapiens, MCF7, 72 h) [nM] | IC50 ([4]; Homo sapiens, LNCaP, 72 h) [nM] | IC50 [1, 11] [nM] | IC50 ([5]; Lymphocyte, 72 h) [nM] | IC50 ([6]; Homo sapiens, MDA-MB-231, 72 h) [nM] | IC50 [7, 12] [nM] | IC50 ([8]; Homo sapiens, WI-38, 72 h) [nM] | IC50 (K-562 leukemia cells; Homo sapiens, K562, 72 h) [nM] | IC50 ([9]; PC3/AR, 72 h) [nM] | AUC (7 h) [10] [ng·h/mL] | AUC (24 h) [10] [ng·h/mL] | AUC(12 h) [10] [ng·h/mL] | also measured |
| --- | --- | --- | --- | --- | --- | --- | --- | --- | --- | --- | --- | --- | --- | --- |
| C[C@]12CC[C@H]3[C@@H](CCC4C[C@H](OS(N)(=O)=O)[C@@H](N5CCN(C(=O)[C@@H]6CCCN6C(=O)c6ccc7ccccc7c6)CC5)C[C@@]43C)[C@@H]1CC[C@@H]2OS(N)(=O)=O (stereo partly drawn) [39 (AH-70), (2β,3α,17β)-2-{4-[1-(naphthalen-2-ylcarbonyl)-L-prolyl]piperazin-1-yl}androstane-3,17-diyl disulfamate] |  |  |  |  |  |  |  |  |  |  |  |  |  | AUC(0-t) (in vivo; AUC (0-3 h)): 11 ng·h/mL; AUC(0-t) (in vivo; AUC (0-12 h)): 67 ng·h/mL; IC50 ([1]; Homo sapiens, Table 4, HL-60 cancer cell line, read-out: IC50): 5000 nM; IC50 ([1]; Homo sapiens, Table 6, HL-60 cancer cell line, read-out: IC50 (HL-60)): 5000 nM |
| COc1cccc2c1C(=O)c1c(O)c3c(c(O)c1C2=O)C[C@@](O)(C(=O)CO)C[C@@H]3O[C@H]1C[C@H](N)[C@H](O)[C@H](C)O1 [Doxorubicin, reference compound] | 1300 | > 10000 | 100 | 80 | 160 | 900 | 900 | 3000 | 400 | 900 |  |  |  | IC50 ([7]; Homo sapiens, OVCAR-3): 900 nM |
| CC(=O)c1cccc(C(=O)N[C@@H](Cc2ccccc2)C(=O)N2CCN([C@H]3C[C@@]4(C)[C@@H](CC[C@@H]5[C@@H]4CC[C@]4(C)[C@@H](O)CC[C@@H]54)C[C@@H]3O)CC2)c1 [FC-48, 3-acetyl-N-[(2S)-1-{4-[(2β,3α,5α,17β)-3,17-Dihydroxyandrostan-2-yl]piperazin-1-yl}1-oxo-3-phenylpropan-2-yl]benzamide] | 1300 | 1500 | 2200 | 1800 | > 50000 | > 10000 | 1600 | > 10000 | > 10000 | > 10000 |  |  |  | AUC(0-t) (in vivo; AUC (7 h)): 290 ng·h/mL; AUC(0-t) (in vivo; AUC (24 h)): 555 ng·h/mL; AUC(0-t) (in vivo; AUC(12 h)): 413 ng·h/mL |
| CC[C@]1(O)CC[C@H]2[C@@H]3CC[C@H]4C[C@H](O)[C@@H](N5CCN(C(=O)[C@@H]6CCCN6C(=O)c6cccc7ccccc67)CC5)C[C@]4(C)[C@H]3CC[C@@]21C [LPC-37] |  |  |  |  |  |  |  |  |  |  | 372 | 681 | 525 |  |
| C[C@]12C[C@H](N3CCN(C(=O)[C@@H]4CCCN4C(=O)c4ccc(C#N)cc4)CC3)[C@@H](O)C[C@@H]1CC[C@@H]1[C@@H]2CC[C@]2(C)[C@@H](O)CC[C@@H]12 [PC-41, 4-{[(2S)-2-({4-[(2β,3α,5α,17β)-3,17-dihydroxyandrostan-2-yl]piperazin-1-yl}carbonyl)pyrrolidin-1-yl]carbonyl}benzonitrile] | 200 | 400 | 1000 | 3100 | 19300 | > 10000 | 800 | > 10000 | > 10000 | 6500 |  |  |  |  |
| C[C@]12C[C@H](N3CCN(C(=O)[C@@H]4CCCN4C(=O)/C=C/c4ccccc4)CC3)[C@@H](O)C[C@@H]1CC[C@@H]1[C@@H]2CC[C@]2(C)[C@@H](O)CC[C@@H]12 [PC-42] |  |  |  |  |  |  |  |  |  |  | 641 | 767 | 751 | IC50 [2]: 200 nM; IC50 [3]: 400 nM; IC50 [4]: 500 nM; IC50 [1, 13]: 1500 nM; IC50 [5, 14]: 7900 nM; IC50 [6]: > 10000 nM; IC50 [7, 15]: 800 nM; IC50 [8]: > 10000 nM; IC50 (K-562 leukemia cells): 9300 nM; IC50 [9]: 4000 nM |
| C=C(C)[C@H]1CC=C(C(=O)N2CCC[C@H]2C(=O)N2CCN([C@H]3C[C@@]4(C)[C@@H](CC[C@@H]5[C@@H]4CC[C@]4(C)[C@@H](O)CC[C@@H]54)C[C@@H]3O)CC2)CC1 [PC-46] |  |  |  |  |  |  |  |  |  |  | 771 | 830 | 830 | IC50 [2]: 200 nM; IC50 [3]: 700 nM; IC50 [4]: 900 nM; IC50 [1, 13]: 1900 nM; IC50 [5, 14]: 9300 nM; IC50 [6]: > 10000 nM; IC50 [7, 15]: 1300 nM; IC50 [8]: > 10000 nM; IC50 (K-562 leukemia cells): 14100 nM; IC50 [9]: 4000 nM |
